From patent publication US20230355646A1, “AUTOPHAGY ACTIVATOR” (Resonac Corporation, priority 2020, published 2023) come the findings set out here.

Molecules are shown by their SMILES.

The subject of this assay is ATG7 gene. Nature of the assay: ATG7 gene expression promoting effect in human neuroblastoma SH-SY5Y in the presence of amyloid β. The format is cell-based. On the procedure: In the presence of an autophagy activator, the expression levels of the LC3 gene, ATG5 gene, and ATG7 gene in human neuroblastoma (SH-SY5Y; obtained from ATCC) were measured by the following test method, and the effect of promoting the expression of the LC3 gene, ATG5 gene, and ATG7 gene by an autophagy activator was evaluated.
In the following examples and comparative examples, tests were performed by adding amyloid β, which is known to cause a decrease in autophagy in nerve cells, to each medium.
SH-SY5Y cells were prepared at a seeding density of 10000 cells/cm^2 and cultured for 24 hours in D-MEM medium/Ham's F-12 medium (manufactured by Sigma-Aldrich) to which 10% fetal bovine serum (manufactured by MP Biomedicals) was added. Next, in Example 15, the methyl hesperidin DMSO solution was added to the medium such that the final concentration of methyl hesperidin was 10^−3% (V/V) and the final concentration of DMSO was 0.1% (V/V). […]
Then, using Nucleospin (registered trademark) RNA kit (manufactured by Takara Bio Inc.), RNA was extracted from SH-SY5Y cells in each example, and cDNA was synthesized from the obtained RNA. Next, using this cDNA as a template, by quantitative real-time PCR, the expression level of each gene was quantified using primers (manufactured by Takara Bio Inc.) specific to the LC3 gene, ATG5 gene, and ATG7 gene, respectively. […]

With `COc1ccc([C@@H]2CC(=O)c3c(O)cc(O[C@@H]4O[C@H](CO[C@@H]5O[C@@H](C)[C@H](O)[C@@H](O)[C@H]5O)[C@@H](O)[C@H](O)[C@H]4O)cc3O2)cc1O` [Comparative Example 2, hesperidin], the “expression level of the ATG7 gene (in words)” value (SH-SY5Y cells with amyloid β, compared to DMSO and amyloid β of Comparative Example 5) is reported as “increased”. The “Relative gene expression level ATG7” value (SH-SY5Y cells, 20 μM amyloid β present, 10^−2% (V/V) methyl hesperidin or hesperidin, additional ingredient where in the example, 48 hours, Reference Example 3 = 1.00) stood at 2.31.
